Laboratory results from US10072020B1, “Isatin spiro compounds with antibacterial activities and a method of preparing the same” (SHAANXI UNIVERSITY OF SCIENCE AND TECHNOLOGY, priority 2018, dated 2018).
In brackets after ≈: the same amount, converted by molar mass.

What was measured:
Experiment in all cases: Antibacterial activity test, MIC by agar dilution
Format in all cases: cell-based
Escherichia coli 10-1 = conditions: 101, MH agar plate two-fold dilution, 25° C. for 18-24 hours, read-out: Minimum Inhibitory Concentrations
Method: (§1) Antibacterial Activity Test of the Compounds of the Invention
(§2) The compounds were tested for their antibacterial activities using the following standard strains: Escherichia coli ATCC 25922, Escherichia coli 10-1, and Escherichia coli 10-2.
(§3) Preparation of Escherichia coli strains and bacterial liquid: the test strains (Escherichia coli ATCC 25922, Escherichia coli 10-1, and Escherichia coli 10-2) stock solutions were seeded in LB solid Media Petri dishes and placed in a 37° C. incubator overnight. The next day, single colonies were picked from LB solid petri dishes and inoculated into 6-10 mL LB liquid medium and cultured with shaking at 150 rpm for 3 hours at 37° C. 100 μL of the liquid was evenly coated on an LB solid plate, and inverted in an incubator at 37° C. overnight. Viable cells in the logarithmic growth phase were collected after 16-18 hours, and sterile water was added to form a bacteria suspension with the number of bacteria being 106 CFu·mL^−1.
(§4) Preparation of compound-containing agar plate: MH agar was heated to dissolve and placed in 45-50° C. water bath to balance, the compounds were added at different concentrations (160, 300, 600 μg·mL^−1). The mixtures were mixed evenly and poured onto sterilization plates, placed into a sealed plastic bag at 2-8° C.
(§5) Determination of the minimum inhibitory concentration: the minimum inhibitory concentrations (MICs) of the test compounds on the test bacteria were determined by diluting the agar plate two-fold. Multi-point inoculation instrument was used to inoculate bacteria to the MH agar medium that contains the compounds, forming a plaque with a diameter of 5 to 8 mm. After the plates were incubated at 25° C. for 18-24 hours, the growth state of the bacteria was observed, and the minimum compound concentration for inhibiting the growth of the bacteria was the MIC.

[1] = system: Escherichia coli ATCC 25922; conditions: ATCC25922, MH agar plate two-fold dilution, 25° C. for 18-24 hours, read-out: Minimum Inhibitory Concentrations
Method: as §1, §2, §3, §4, §5

Escherichia coli 10-2 = conditions: 102, MH agar plate two-fold dilution, 25° C. for 18-24 hours, read-out: Minimum Inhibitory Concentrations
Method: as §1, §2, §3, §4, §5

Row | SMILES | MIC (Escherichia coli 10-1) [µg/mL] | MIC [1] [µg/mL] | MIC (Escherichia coli 10-2) [µg/mL]
1 | CN1C(=O)[C@@]2(OC(c3ccccc3)=C2C(=O)c2ccccc2)c2cc(Br)ccc21 [Compound 5, (R)-3′-benzoyl-5-bromo-1-methyl-4′-phenylspiro[indoline-3,2′-oxet]-2-one] | 300 (≈ 672 µM) | 160 (≈ 359 µM) | 300 (≈ 672 µM)
2 | CN1C(=O)[C@@]2(OC=C2C=O)c2cccc(Br)c21 [Compound 2, (R)-7-bromo-1-methyl-2-oxospiro[indoline-3,2′-oxete]-3′-carbaldehyde] | 160 (≈ 544 µM) | 300 (≈ 1020 µM) | > 160
3 | CN1C(=O)[C@@]2(OC=C2C=O)c2cc(Br)ccc21 [Compound 1, (R)-5-bromo-1-methyl-2-oxospiro[indoline-3,2′-oxete]-3′-carbaldehyde] | 160 (≈ 544 µM) | 300 (≈ 1020 µM) | 160 (≈ 544 µM)
4 | CN1C(=O)[C@@]2(OC=C2C=O)c2cc(Cl)ccc21 [Compound 3, (R)-5-chloro-1-methyl-2-oxospiro[indoline-3,2′-oxete]-3′-carbaldehyde] | 160 (≈ 641 µM) | 300 (≈ 1200 µM) | 300 (≈ 1200 µM)
5 | CN1C(=O)[C@@]2(OC=C2C=O)c2cccc(Cl)c21 [Compound 4, (R)-7-chloro-1-methyl-2-oxospiro[indoline-3,2′-oxete]-3′-carbaldehyde] | 300 (≈ 1200 µM) | > 600 | 160 (≈ 641 µM)
6 | CN1C(=O)[C@@]2(OC(c3ccccc3)=C2C(=O)c2ccccc2)c2cc(Cl)ccc21 [Compound 7, (R)-3′-benzoyl-5-chloro-1-methyl-4′-phenylspiro[indoline-3,2′-oxet]-2-one] | 160 (≈ 398 µM) | 300 (≈ 747 µM) | 300 (≈ 747 µM)
7 | CN1C(=O)[C@@]2(OC(c3ccccc3)=C2C(=O)c2ccccc2)c2cccc(Br)c21 [Compound 6, (R)-3′-benzoyl-7-bromo-1-methyl-4′-phenylspiro[indoline-3,2′-oxet]-2-one] | > 600 | 300 (≈ 672 µM) | 300 (≈ 672 µM)
8 | CCN1C(=O)[C@@]2(OC=C2C(=O)c2ccccc2)c2cc(Br)ccc21 [Compound 9, (R)-3′-benzoyl-5-bromo-1-ethylspiro[indoline-3,2′-oxet]-2-one] | 300 (≈ 781 µM) | 300 (≈ 781 µM) | 160 (≈ 416 µM)
9 | CN1C(=O)[C@@]2(OC(c3ccccc3)=C2C(=O)c2ccccc2)c2cccc(Cl)c21 [Compound 8, (R)-3′-benzoyl-7-chloro-1-methyl-4′-phenylspiro[indoline-3,2′-oxet]-2-one] | 300 (≈ 747 µM) | 160 (≈ 398 µM) | 300 (≈ 747 µM)

Second part, the compound after the results:

Row | MIC (Escherichia coli 10-1) [µg/mL] | MIC [1] [µg/mL] | MIC (Escherichia coli 10-2) [µg/mL] | SMILES
10 | 160 (≈ 402 µM) | 300 (≈ 753 µM) | > 600 | CCCN1C(=O)[C@@]2(OC(c3ccccc3)=C2C=O)c2cccc(Br)c21 [Compound 10, (R)-7-bromo-2-oxo-4′-phenyl-1-propylspiro[indoline-3,2′-oxete]-3′-carbaldehyde]
11 | 160 (≈ 306 µM) | 160 (≈ 306 µM) | 300 (≈ 574 µM) | O=C(C1=C(c2ccccc2)O[C@@]12C(=O)N(Cc1ccccc1)c1c(Br)cccc12)c1ccccc1 [Compound 15]
12 | 160 (≈ 491 µM) | 300 (≈ 921 µM) | 160 (≈ 491 µM) | O=CC1=CO[C@@]12C(=O)N(Cc1ccccc1)c1c(Cl)cccc12 [Compound 14]
13 | 300 (≈ 698 µM) | 160 (≈ 372 µM) | 160 (≈ 372 µM) | CCCN1C(=O)[C@@]2(OC(c3ccccc3)=C2C(=O)c2ccccc2)c2cc(Cl)ccc21 [Compound 16, (R)-3′-benzoyl-5-chloro-4′-phenyl-1-propylspiro[indoline-3,2′-oxet]-2-one]
14 | 300 (≈ 2040 µM) | > 600 | 160 (≈ 1090 µM) | O=C1Nc2ccccc2C1=O [isatin]
15 | 160 (≈ 452 µM) | > 600 | 160 (≈ 452 µM) | CCCN1C(=O)[C@@]2(OC=C2C(=O)c2ccccc2)c2cc(Cl)ccc21 [Compound 11, (R)-3′-benzoyl-5-chloro-1-propylspiro[indoline-3,2′-oxet]-2-one]
16 | 160 (≈ 471 µM) | 300 (≈ 883 µM) | 300 (≈ 883 µM) | CCN1C(=O)[C@@]2(OC(c3ccccc3)=C2C=O)c2cccc(Cl)c21 [Compound 12, (R)-7-chloro-1-ethyl-2-oxo-4′-phenylspiro[indoline-3,2′-oxete]-3′-carbaldehyde]
17 | 300 (≈ 974 µM) | 160 (≈ 519 µM) | 160 (≈ 519 µM) | CCN1C(=O)[C@@]2(OC=C2C=O)c2cc(Br)ccc21 [Compound 13, (R)-5-bromo-1-ethyl-2-oxospiro[indoline-3,2′-oxete]-3′-carbaldehyde]
